Laboratory results as given in ChEMBL document CHEMBL1127956, “Tetrahydroisoquinoline as a phenylalanine replacement in renin inhibitors” (Bioorg Med Chem Lett, 1994).

Target: T1, Renin (Homo sapiens) (UniProt P00797)
T1 sequence (whole entry): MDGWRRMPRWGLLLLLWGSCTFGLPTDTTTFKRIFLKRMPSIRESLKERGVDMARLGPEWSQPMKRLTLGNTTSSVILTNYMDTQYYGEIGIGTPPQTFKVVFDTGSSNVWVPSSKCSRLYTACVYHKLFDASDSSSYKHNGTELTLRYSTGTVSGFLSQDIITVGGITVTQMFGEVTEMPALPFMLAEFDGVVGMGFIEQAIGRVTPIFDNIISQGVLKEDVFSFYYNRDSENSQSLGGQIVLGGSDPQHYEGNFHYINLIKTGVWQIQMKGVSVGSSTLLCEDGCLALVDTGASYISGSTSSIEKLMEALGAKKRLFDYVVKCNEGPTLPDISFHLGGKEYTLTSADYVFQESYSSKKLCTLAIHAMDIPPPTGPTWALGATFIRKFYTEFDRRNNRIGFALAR
Experiment: In vitro inhibitory activity against monkey plasma renin was determined at 10e-6 M
Assay type: cell-free
Details: Cercopithecidae, target entry is the homologue from another species

First: CC(C)C[C@H](O)[C@H](O)[C@H](CC1CCCCC1)NC(=O)CCC(O)[C@@H]1Cc2ccccc2CN1C(=O)OC(C)(C)C (stereo partly specified)
Second: CC(C)C[C@H](O)[C@H](O)[C@H](CC1CCCCC1)NC(=O)CCC(=O)[C@@H]1Cc2ccccc2CN1C(=O)OC(C)(C)C
The inhibition of the first is lower: 0% for the first, 9.8% for the second.

With `CC(C)C[C@H](O)[C@H](O)[C@H](CC1CCCCC1)NC(=O)CNC(=O)[C@@H]1Cc2ccccc2CN1C(=O)OC(C)(C)C` the inhibition was 11.9%.

Target: T2, Renin (Homo sapiens, UniProt P00797)
T2 sequence (P00797 whole entry): T1 sequence (whole entry)
Experiment: In vitro inhibitory activity against monkey plasma renin
Assay type: cell-free, Cercopithecidae
Details: target entry is the homologue from another species

Compared with `C=CC[C@H](NC(=O)[C@H]1Cc2ccccc2CN1)C(=O)N[C@@H](CC1CCCCC1)[C@@H](O)[C@@H](O)CC(C)C`, `C=CC[C@H](NC(=O)[C@@H]1Cc2ccccc2CN1)C(=O)N[C@@H](CC1CCCCC1)[C@@H](O)[C@@H](O)CC(C)C` is 32-fold lower in IC50: 373 nM for the first, 11.5 nM for the second. The second is the more potent here.

Compared with `CC(C)C[C@H](O)[C@H](O)[C@H](CC1CCCCC1)NC(=O)CNC(=O)[C@H](Cc1ccccc1)NS(=O)(=O)N1CCOCC1`, `CC(C)C[C@H](O)[C@H](O)[C@H](CC1CCCCC1)NC(=O)CNC(=O)[C@@H]1Cc2ccccc2CN1S(=O)(=O)N1CCOCC1` is 28-fold higher in IC50: 3.6 nM for the first, 101 nM for the second.

Going from `C=CC[C@H](NC(=O)[C@@H]1Cc2ccccc2CN1C(=O)OC(C)(C)C)C(=O)N[C@@H](CC1CCCCC1)[C@@H](O)[C@@H](O)CC(C)C` to `C=CC[C@H](NC(=O)[C@H]1Cc2ccccc2CN1C(=O)OC(C)(C)C)C(=O)N[C@@H](CC1CCCCC1)[C@@H](O)[C@@H](O)CC(C)C`, the IC50 rises from 146 nM to 325 nM (2.2-fold).

Compared with `C=CC[C@H](NC(=O)[C@H](Cc1ccccc1)NC(=O)OC(C)(C)C)C(=O)N[C@@H](CC1CCCCC1)[C@@H](O)[C@@H](O)CC(C)C`, `C=CC[C@H](NC(=O)[C@@H]1Cc2ccccc2CN1S(=O)(=O)N1CCOCC1)C(=O)N[C@@H](CC1CCCCC1)[C@@H](O)[C@@H](O)CC(C)C` is 6.9-fold higher in IC50: 0.42 nM for the first, 2.89 nM for the second. The first is the more potent here.
